Test results taken from patent US12441703B2, “Carboxamides as modulators of sodium channels” (VERTEX PHARMACEUTICALS INCORPORATED, priority 2019, dated 2025).

Molecular target: human NaV 1.8 (Homo sapiens, UniProt Q9Y5Y9)
Test: E-VIPR assay for detecting and measuring NaV inhibition properties
Assay type: cell-based
Settings: E-VIPR assay conducted in the presence of human serum; HEK cells expressing truncated human NaV 1.8; read-out: IC50
Procedure, shortened: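 HEK cells with truncated human NaV1.8 plus KIR2.1 BacMam, hexyl dye loaded 20 min, compound 30 min at room temperature, 11-point 3-fold series […], 0.625% DMSO, with or without human serum. E-VIPR biphasic stimulation at 10 Hz for 10 s; membrane-potential response read as normalized coumarin/oxonol ratio.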

human NaV 1.8, sequence (Q9Y5Y9 whole entry, looked up): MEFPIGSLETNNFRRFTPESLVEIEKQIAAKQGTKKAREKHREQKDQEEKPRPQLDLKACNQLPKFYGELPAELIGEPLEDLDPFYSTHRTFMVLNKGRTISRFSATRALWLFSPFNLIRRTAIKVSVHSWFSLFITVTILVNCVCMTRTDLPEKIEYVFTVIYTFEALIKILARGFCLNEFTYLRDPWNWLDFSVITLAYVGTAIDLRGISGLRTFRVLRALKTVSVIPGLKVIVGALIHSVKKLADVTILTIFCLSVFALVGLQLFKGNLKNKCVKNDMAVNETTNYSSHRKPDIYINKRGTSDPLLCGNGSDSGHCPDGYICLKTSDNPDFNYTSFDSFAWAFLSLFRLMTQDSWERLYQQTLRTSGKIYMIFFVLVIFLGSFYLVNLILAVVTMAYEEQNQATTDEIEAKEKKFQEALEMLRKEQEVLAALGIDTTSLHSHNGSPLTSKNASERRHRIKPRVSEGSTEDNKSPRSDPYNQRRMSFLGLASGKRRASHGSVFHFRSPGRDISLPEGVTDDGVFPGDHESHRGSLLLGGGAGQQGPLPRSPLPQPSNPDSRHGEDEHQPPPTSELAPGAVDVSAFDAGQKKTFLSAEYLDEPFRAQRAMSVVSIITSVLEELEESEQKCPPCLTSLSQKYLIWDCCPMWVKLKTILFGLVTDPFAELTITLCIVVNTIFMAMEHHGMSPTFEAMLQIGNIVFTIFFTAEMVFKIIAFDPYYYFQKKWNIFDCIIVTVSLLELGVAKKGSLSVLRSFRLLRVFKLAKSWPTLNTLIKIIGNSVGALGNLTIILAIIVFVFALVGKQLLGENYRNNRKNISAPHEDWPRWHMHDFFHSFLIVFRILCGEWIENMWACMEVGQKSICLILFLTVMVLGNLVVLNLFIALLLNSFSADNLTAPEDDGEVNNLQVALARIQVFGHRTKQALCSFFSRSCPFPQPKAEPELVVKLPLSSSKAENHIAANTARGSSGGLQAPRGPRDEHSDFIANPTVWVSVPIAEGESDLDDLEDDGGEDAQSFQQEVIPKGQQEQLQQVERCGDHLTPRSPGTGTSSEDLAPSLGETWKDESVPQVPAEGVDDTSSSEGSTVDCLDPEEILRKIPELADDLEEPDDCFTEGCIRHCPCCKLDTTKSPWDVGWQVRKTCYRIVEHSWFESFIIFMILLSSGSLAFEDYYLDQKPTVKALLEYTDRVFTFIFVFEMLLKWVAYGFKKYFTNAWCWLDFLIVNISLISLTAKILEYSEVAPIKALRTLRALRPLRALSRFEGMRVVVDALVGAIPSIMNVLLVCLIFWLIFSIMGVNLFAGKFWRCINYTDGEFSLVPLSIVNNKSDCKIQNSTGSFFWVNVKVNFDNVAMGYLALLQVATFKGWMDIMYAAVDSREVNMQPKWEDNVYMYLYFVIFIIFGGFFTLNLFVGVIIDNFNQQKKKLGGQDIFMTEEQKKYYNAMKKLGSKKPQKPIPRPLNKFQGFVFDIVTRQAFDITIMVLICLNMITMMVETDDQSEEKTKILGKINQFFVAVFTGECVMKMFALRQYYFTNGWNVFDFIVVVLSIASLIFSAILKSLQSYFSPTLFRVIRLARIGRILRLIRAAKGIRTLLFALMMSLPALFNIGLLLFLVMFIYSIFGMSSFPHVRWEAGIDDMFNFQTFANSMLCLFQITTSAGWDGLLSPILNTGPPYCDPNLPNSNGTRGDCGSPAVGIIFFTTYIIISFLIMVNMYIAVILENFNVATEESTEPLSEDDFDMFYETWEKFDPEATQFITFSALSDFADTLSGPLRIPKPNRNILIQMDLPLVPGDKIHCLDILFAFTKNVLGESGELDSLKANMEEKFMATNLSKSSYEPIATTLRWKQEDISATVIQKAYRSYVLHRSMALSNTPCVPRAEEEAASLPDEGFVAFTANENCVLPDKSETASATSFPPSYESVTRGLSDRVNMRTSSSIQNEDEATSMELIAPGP

| SMILES | IC50 [nM] |
| --- | --- |
| Cc1cnc(C(N)=O)cc1NC(=O)c1c(Oc2ccc(OC(F)(F)F)c(F)c2Cl)ccc(C(F)(F)F)c1F [Compound 296, 4-[[6-[2-Chloro-3-Fluoro-4-(Trifluoromethoxy)Phenoxy]-2-Fluoro-3-(Trifluoromethyl)Benzoyl]Amino]-5-Methyl-Pyridine-2-Carboxamide] | 24.6 |
| NC(=O)c1ccc(NC(=O)c2c(Oc3ccc(OC(F)(F)F)c(F)c3Cl)ccc(C(F)(F)F)c2F)cn1 [Compound 297, 5-[[6-[2-Chloro-3-Fluoro-4-(Trifluoromethoxy)Phenoxy]-2-Fluoro-3-(Trifluoromethyl)Benzoyl]Amino]Pyridine-2-Carboxamide] | 74 |
| NC(=O)c1cc(NC(=O)c2c(Oc3ccc(OC(F)(F)F)c(F)c3Cl)ccc(C(F)(F)F)c2F)ccn1 [Compound 298, 4-[[6-[2-Chloro-3-Fluoro-4-(Trifluoromethoxy)Phenoxy]-2-Fluoro-3-(Trifluoromethyl)Benzoyl]Amino]Pyridine-2-Carboxamide] | 9.8 |
| COc1cc(Oc2ccc(F)c(F)c2OC)c(C(=O)Nc2ccnc(C(N)=O)c2)c(F)c1C(F)(F)F [Compound 299, 4-[[6-(3,4-Difluoro-2-Methoxy-Phenoxy)-2-Fluoro-4-Methoxy-3-(Trifluoromethyl)Benzoyl]Amino]Pyridine-2-Carboxamide] | 6.4 |
| CNC(=O)c1cc(NC(=O)c2c(Oc3ccc(F)c(F)c3OC)cc(OC)c(C(F)(F)F)c2NC)ccn1 [Compound 300, 4-[[6-(3,4-Difluoro-2-Methoxy-Phenoxy)-4-Methoxy-2-(Methylamino)-3-(Trifluoromethyl)Benzoyl]Amino]-N-Methyl-Pyridine-2-Carboxamide] | 1400 |
| CNC(=O)c1cc(NC(=O)c2c(Oc3ccc(F)c(F)c3OC)cc(OC)c(C(F)(F)F)c2F)ccn1 [Compound 301, 4-[[6-(3,4-Difluoro-2-Methoxy-Phenoxy)-2-Fluoro-4-Methoxy-3-(Trifluoromethyl)Benzoyl]Amino]-N-Methyl-Pyridine-2-Carboxamide] | 22 |
| COc1c(Oc2cnc(C(F)(F)F)c(OC)c2C(=O)Nc2cc(C(N)=O)ncc2C)ccc(F)c1F [Compound 302, N-(2-carbamoyl-5-methyl-4-pyridyl)-5-(3,4-difluoro-2-methoxy-phenoxy)-3-methoxy-2-(trifluoromethyl)pyridine-4-carboxamide] | 280 |
| COc1c(Oc2ccc(F)c(F)c2C(=O)Nc2ccnc(C(N)=O)c2)ccc(OC(F)(F)F)c1F [Compound 303, 4-[[2,3-difluoro-6-[3-fluoro-2-methoxy-4-(trifluoromethoxy)phenoxy]benzoyl]amino]pyridine-2-carboxamide] | 19 |
| COc1c(Oc2ccc(F)c(F)c2C(=O)Nc2cc(C(N)=O)ncc2C)ccc(OC(F)(F)F)c1F [Compound 304, 4-[[2,3-difluoro-6-[3-fluoro-2-methoxy-4-(trifluoromethoxy)phenoxy]benzoyl]amino]-5-methyl-pyridine-2-carboxamide] | 54 |
| COc1c(Oc2ccc(Cl)c(F)c2C(=O)Nc2ccnc(C(N)=O)c2)ccc(OC(F)(F)F)c1F [Compound 305, 4-[[3-chloro-2-fluoro-6-[3-fluoro-2-methoxy-4-(trifluoromethoxy)phenoxy]benzoyl]amino]pyridine-2-carboxamide] | 2.3 |
| COc1c(Oc2ccc(Cl)c(F)c2C(=O)Nc2ccc(C(N)=O)nc2)ccc(OC(F)(F)F)c1F [Compound 306, 5-[[3-chloro-2-fluoro-6-[3-fluoro-2-methoxy-4-(trifluoromethoxy)phenoxy]benzoyl]amino]pyridine-2-carboxamide] | 19 |
| COc1c(Oc2cc(F)c(F)c(F)c2C(=O)Nc2ccnc(C(N)=O)c2)ccc(OC(F)(F)F)c1F [Compound 307, 4-[[2,3,4-trifluoro-6-[3-fluoro-2-methoxy-4-(trifluoromethoxy)phenoxy]benzoyl]amino]pyridine-2-carboxamide] | 5.9 |
| COc1c(Oc2cc(F)c(F)c(F)c2C(=O)Nc2cnc(C(N)=O)nc2)ccc(OC(F)(F)F)c1F [Compound 308, 5-[[2,3,4-trifluoro-6-[3-fluoro-2-methoxy-4-(trifluoromethoxy)phenoxy]benzoyl]amino]pyrimidine-2-carboxamide] | 36 |
| COc1c(Oc2cc(Cl)c(C)c(F)c2C(=O)Nc2ccnc(C(N)=O)c2)ccc(OC(F)(F)F)c1F [Compound 309, 4-[[4-chloro-2-fluoro-6-[3-fluoro-2-methoxy-4-(trifluoromethoxy)phenoxy]-3-methyl-benzoyl]amino]pyridine-2-carboxamide] | 1.4 |
| COc1c(Oc2ccc(C3CCC3)c(F)c2C(=O)Nc2ccnc(C(N)=O)c2)ccc(OC(F)(F)F)c1F [Compound 310, 4-[[3-cyclobutyl-2-fluoro-6-[3-fluoro-2-methoxy-4-(trifluoromethoxy)phenoxy]benzoyl]amino]pyridine-2-carboxamide] | 2.5 |
| COc1c(Oc2cc3c(cc2C(=O)Nc2ccnc(C(N)=O)c2)OC(F)(F)O3)ccc(OC(F)(F)F)c1F [Compound 311, 4-[[2,2-difluoro-6-[3-fluoro-2-methoxy-4-(trifluoromethoxy)phenoxy]-1,3-benzodioxole-5-carbonyl]amino]pyridine-2-carboxamide] | 13 |
| COc1c(Oc2ccc(C(F)(F)F)c(C)c2C(=O)Nc2cc(C(N)=O)ncc2C)ccc(OC(F)(F)F)c1F [Compound 312, 4-[[6-[3-fluoro-2-methoxy-4-(trifluoromethoxy)phenoxy]-2-methyl-3-(trifluoromethyl)benzoyl]amino]-5-methyl-pyridine-2-carboxamide] | 7.9 |
| COc1c(Oc2ccc(C(F)(F)F)c(C)c2C(=O)Nc2cc(C(N)=O)ccn2)ccc(OC(F)(F)F)c1F [Compound 313, 2-[[6-[3-fluoro-2-methoxy-4-(trifluoromethoxy)phenoxy]-2-methyl-3-(trifluoromethyl)benzoyl]amino]pyridine-4-carboxamide] | 121 |
| COc1c(Oc2ccc(C(F)(F)F)c(C)c2C(=O)Nc2cnc(C(N)=O)nc2)ccc(OC(F)(F)F)c1F [Compound 314, 5-[[6-[3-fluoro-2-methoxy-4-(trifluoromethoxy)phenoxy]-2-methyl-3-(trifluoromethyl)benzoyl]amino]pyrimidine-2-carboxamide] | 6.5 |
| COc1c(Oc2ccc(C(F)(F)F)c(C)c2C(=O)Nc2cc(C(N)=O)ncn2)ccc(OC(F)(F)F)c1F [Compound 315, 6-[[6-[3-fluoro-2-methoxy-4-(trifluoromethoxy)phenoxy]-2-methyl-3-(trifluoromethyl)benzoyl]amino]pyrimidine-4-carboxamide] | 120 |
| COc1c(Oc2ccc(C(F)(F)F)c(C)c2C(=O)Nc2cnc(C(N)=O)cn2)ccc(OC(F)(F)F)c1F [Compound 316, 5-[[6-[3-fluoro-2-methoxy-4-(trifluoromethoxy)phenoxy]-2-methyl-3-(trifluoromethyl)benzoyl]amino]pyrazine-2-carboxamide] | 24 |
| COc1c(Oc2ccc(C(F)(F)F)c(C)c2C(=O)Nc2ccc(C(N)=O)nn2)ccc(OC(F)(F)F)c1F [Compound 317, 6-[[6-[3-fluoro-2-methoxy-4-(trifluoromethoxy)phenoxy]-2-methyl-3-(trifluoromethyl)benzoyl]amino]pyridazine-3-carboxamide] | 520 |
| COc1c(Oc2cc(C(F)(F)F)cc(F)c2C(=O)Nc2cc(C(N)=O)ncc2C)ccc(OC(F)(F)F)c1F [Compound 318, 4-[[2-fluoro-6-[3-fluoro-2-methoxy-4-(trifluoromethoxy)phenoxy]-4-(trifluoromethyl)benzoyl]amino]-5-methyl-pyridine-2-carboxamide] | 15.1 |
| [2H]C([2H])([2H])Oc1c(Oc2ccc(C(F)F)c(OC)c2C(=O)Nc2ccnc(C(N)=O)c2)ccc(OC(F)(F)F)c1F [Compound 319, 4-[[3-(difluoromethyl)-6-[3-fluoro-2-(trideuteriomethoxy)-4-(trifluoromethoxy)phenoxy]-2-methoxy-benzoyl]amino]pyridine-2-carboxamide] | 5.2 |
| COc1cc(Oc2ccc(OC(F)(F)F)c(F)c2OC)c(C(=O)Nc2ccnc(C(N)=O)c2)c(F)c1C(F)(F)F [Compound 320, 4-[[2-fluoro-6-[3-fluoro-2-methoxy-4-(trifluoromethoxy)phenoxy]-4-methoxy-3-(trifluoromethyl)benzoyl]amino]pyridine-2-carboxamide] | 0.4 |
| COc1cc(Oc2ccc(OC(F)(F)F)c(F)c2OC)c(C(=O)Nc2ccc(C(N)=O)nc2)c(F)c1C(F)(F)F [Compound 321, 5-[[2-fluoro-6-[3-fluoro-2-methoxy-4-(trifluoromethoxy)phenoxy]-4-methoxy-3-(trifluoromethyl)benzoyl]amino]pyridine-2-carboxamide] | 11 |
| COc1c(Oc2ccc(OC(F)(F)F)c(F)c2C(=O)Nc2ccnc(C(N)=O)c2)ccc(OC(F)(F)F)c1F [Compound 322, 4-[[2-fluoro-6-[3-fluoro-2-methoxy-4-(trifluoromethoxy)phenoxy]-3-(trifluoromethoxy)benzoyl]amino]pyridine-2-carboxamide] | 6.1 |
| COc1c(Oc2cc(C(F)(F)F)c(C)c(F)c2C(=O)Nc2ccnc(C(N)=O)c2)ccc(OC(F)(F)F)c1F [Compound 323, 4-[[2-fluoro-6-[3-fluoro-2-methoxy-4-(trifluoromethoxy)phenoxy]-3-methyl-4-(trifluoromethyl)benzoyl]amino]pyridine-2-carboxamide] | 0.8 |
| COc1cc(Oc2ccc(OC(F)(F)F)c(F)c2OC)c(C(=O)Nc2ccnc(C(N)=O)c2)c(F)c1Cl [Compound 324, 4-[[3-chloro-2-fluoro-6-[3-fluoro-2-methoxy-4-(trifluoromethoxy)phenoxy]-4-methoxy-benzoyl]amino]pyridine-2-carboxamide] | 1.7 |
| COc1c(Oc2cc(C(F)(F)F)c(OC)c(F)c2C(=O)Nc2ccnc(C(N)=O)c2)ccc(OC(F)(F)F)c1F [Compound 325, 4-[[2-fluoro-6-[3-fluoro-2-methoxy-4-(trifluoromethoxy)phenoxy]-3-methoxy-4-(trifluoromethyl)benzoyl]amino]pyridine-2-carboxamide] | 1.6 |
